Laboratory results: BindingDB's records for doi:10.1021/jm801654y (Harvard Medical School, 2009)

The compounds below were run against T1, Histone deacetylase (Plasmodium falciparum (isolate 3D7), UniProt Q7K6A1) (assay: pfHDAC-1 Enzyme Assay). Settings: pH 7.5; 23 °C.
T1 sequence (Q7K6A1 whole entry): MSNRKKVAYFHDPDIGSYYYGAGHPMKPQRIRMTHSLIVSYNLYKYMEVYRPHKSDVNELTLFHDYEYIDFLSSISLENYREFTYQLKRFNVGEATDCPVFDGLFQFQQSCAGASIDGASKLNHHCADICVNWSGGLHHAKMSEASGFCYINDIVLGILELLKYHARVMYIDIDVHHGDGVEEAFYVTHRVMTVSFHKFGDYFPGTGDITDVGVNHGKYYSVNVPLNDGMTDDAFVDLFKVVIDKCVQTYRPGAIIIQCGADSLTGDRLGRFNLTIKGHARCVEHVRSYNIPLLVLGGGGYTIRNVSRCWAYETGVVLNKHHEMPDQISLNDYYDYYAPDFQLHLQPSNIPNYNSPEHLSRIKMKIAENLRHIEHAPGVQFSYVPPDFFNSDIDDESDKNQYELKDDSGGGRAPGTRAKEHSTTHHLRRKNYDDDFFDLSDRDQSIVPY
Method: Recombinant pfHDAC-1 was assayed with substrate in the presence of test compound. […] The reaction was allowed to proceed at room temperature for 15 hrs in sealed plates to minimize evaporation. […] Fluorescence was monitored after 1 hr at excitation and emission wavelengths of 360 and 460 nm, respectively. Kinetic constants were calculated by non-linear regression fitting of the data to the Michaelis-Menten equation. Kinetic and inhibition values reported are the mean of three determinations +/- standard deviation.
An IC50 of 45 nM was found for `O=C(CCCCC(=O)NN=Cc1ccc(B(O)O)cc1)NO` [benzylidenehydrazine derivative, 24] in this work. An IC50 of 15 nM was found for `O=C(CCCCCC(=O)NN=Cc1ccc(-n2ccnc2)cc1)NO` [benzylidenehydrazine derivative, 19] in this work. An IC50 of 59 nM was found for `COc1cc(C=NNC(=O)CCCCC(=O)NO)c(Br)cc1O` [benzylidenehydrazine derivative, 23] in this work. An IC50 of 37 nM was found for `O=C(CCCCCC(=O)NN=Cc1ccccc1Br)NO` [benzylidenehydrazine derivative, 16] in this work. An IC50 of 59 nM was found for `COc1cc(C=NNC(=O)CCCCCC(=O)NO)c(Br)cc1O` [benzylidenehydrazine derivative, 17] in this work. An IC50 of 41 nM was found for `O=C(CCCCCC(=O)NN=Cc1c(O)ccc2ccccc12)NO` [benzylidenehydrazine derivative, 14] in this work. An IC50 of 43 nM was found for `O=C(CCCCCCC(=O)NN=Cc1c(O)cc(O)cc1O)NO` [benzylidenehydrazine derivative, 11] in this work. An IC50 of 20 nM was found for `O=C(CCCCCC(=O)NN=Cc1cc2c(cc1Br)OCO2)NO` [benzylidenehydrazine derivative, 10] in this work. An IC50 of 36 nM was found for `O=C(CCCCCC(=O)NN=Cc1cccnc1Br)NO` [benzylidenehydrazine derivative, 20] in this work. An IC50 of 106 nM was found for `O=C(CCCCC(=O)NN=Cc1ccc(O)cc1Br)NO` [benzylidenehydrazine derivative, 21] in this work. An IC50 of 89 nM was found for `O=C(CCCCC(=O)NN=Cc1cc(O)ccc1Br)NO` [benzylidenehydrazine derivative, 22] in this work. An IC50 of 59 nM was found for `O=C(CCCCCC(=O)NN=Cc1cccc(O)c1)NO` [benzylidenehydrazine derivative, 8] in this work. An IC50 of 90 nM was found for `O=C(CCCCCC(=O)NN=Cc1ccccc1Cl)NO` [benzylidenehydrazine derivative, 18] in this work. An IC50 of 22 nM was found for `COc1ccc(Br)c(C=NNC(=O)CCCCCC(=O)NO)c1` [benzylidenehydrazine derivative, 12] in this work. An IC50 greater than 10000 nM was found for `O=C1CCc2c(ccc3ccccc23)O1` [1,2-Dihydro-3H-naphtho[2,1-b]pyran-3-one] in this work. An IC50 of 49 nM was found for `O=C(CCCCCC(=O)NN=Cc1cc(O)ccc1Br)NO` [benzylidenehydrazine derivative, 15] in this work. An IC50 of 110 nM was found for `O=C(CCCCCCC(=O)NN=Cc1cc(O)ccc1O)NO` [benzylidenehydrazine derivative, 9] in this work. An IC50 of 37 nM was found for `CN(C)c1ccc(C=NNC(=O)CCCCCC(=O)NO)c(O)c1` [benzylidenehydrazine derivative, 13] in this work.
